Reference: publication PMC10907298 (Nature chemical biology, 2023)
“And” between values parts separate entries of the source, which are not always exact repeats. Identical values can stand only once. “Also recorded” adds a separate entry of the source.

Columns and labels:
[1] = molecular target: purified human STING R95A (Homo sapiens, UniProt Q86WV6, R95A); experiment: native gel analysis of STING oligomerization; conditions: R95A mutant
BMDM, WT mSTING = experiment: IP10 induction in bone marrow-derived macrophages; type: cell-based, mouse; conditions: 50μM, n=1
human STING R95A = human STING R95A (Homo sapiens, UniProt Q86WV6, R95A); experiment: ISRE reporter assay with STING co-transfection in HEK293T cells
Sequence of human STING R95A (Q86WV6 whole entry R95A): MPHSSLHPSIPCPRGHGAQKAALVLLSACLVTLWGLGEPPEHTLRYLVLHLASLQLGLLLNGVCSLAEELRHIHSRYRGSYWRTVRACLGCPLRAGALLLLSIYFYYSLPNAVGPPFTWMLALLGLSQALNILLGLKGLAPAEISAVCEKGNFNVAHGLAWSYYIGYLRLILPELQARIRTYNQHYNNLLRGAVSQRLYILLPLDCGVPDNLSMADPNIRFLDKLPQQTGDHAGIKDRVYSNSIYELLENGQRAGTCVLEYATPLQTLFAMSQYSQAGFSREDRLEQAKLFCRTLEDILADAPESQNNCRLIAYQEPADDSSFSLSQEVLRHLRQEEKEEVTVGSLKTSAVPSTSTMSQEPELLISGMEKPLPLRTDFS

[2] = test system: anti-SIY tumor T cell response; experiment: IFN-γ ELISPOT of PBMC stimulated with SIY peptide; type: in vivo, mouse; conditions: for IFN-γ Spots/2x105 PBMC: 6 days post treatment, SIY peptide, individual animals
human STING R95E = human STING R95E (Homo sapiens, UniProt Q86WV6, R95E); experiment: ISRE reporter assay with STING co-transfection in HEK293T cells
Sequence of human STING R95E (Q86WV6 whole entry R95E): as the sequence (Q86WV6 whole entry R95A) above, with A95E counted along it

IFN-γ = IFN-γ level 6 h after intratumoral injection (MSD); type: in vivo, mouse; conditions: for IFNg: 6 hours post-dosing, B16-SIY, hSTING KI mice, individual animals
mouse STING = molecular target: T1, mouse STING (Mus musculus, UniProt Q3TBT3); experiment: ISRE reporter assay with STING co-transfection in HEK293T cells; type: cell-based
T1 sequence (Q3TBT3 1-378): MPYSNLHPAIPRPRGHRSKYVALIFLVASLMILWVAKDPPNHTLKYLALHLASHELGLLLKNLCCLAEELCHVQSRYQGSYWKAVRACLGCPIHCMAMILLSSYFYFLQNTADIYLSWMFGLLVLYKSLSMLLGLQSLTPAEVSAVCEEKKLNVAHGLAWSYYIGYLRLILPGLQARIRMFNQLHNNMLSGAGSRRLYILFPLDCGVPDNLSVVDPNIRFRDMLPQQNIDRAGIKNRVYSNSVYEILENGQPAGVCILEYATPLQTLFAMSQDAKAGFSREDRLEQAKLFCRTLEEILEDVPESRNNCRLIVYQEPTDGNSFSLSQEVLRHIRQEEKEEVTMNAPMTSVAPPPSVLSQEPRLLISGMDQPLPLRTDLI

human STING L134A = human STING L134A (Homo sapiens, UniProt Q86WV6, L134A); experiment: as above
Sequence of human STING L134A (Q86WV6 whole entry L134A): as the sequence (Q86WV6 whole entry R95A) above, with A95R, L134A counted along it

BMDM, mSTING Indel/Indel = experiment: IP10 induction in bone marrow-derived macrophages; type: cell-based, mouse; conditions: 50μM, n=1
[3] = molecular target: purified human STING (wild-type) (Homo sapiens, UniProt Q86WV6); experiment: native gel analysis of STING oligomerization; conditions: compound alone, 40 μM, hSTING 20 μM
Sequence of purified human STING (wild-type) (Q86WV6 1-343): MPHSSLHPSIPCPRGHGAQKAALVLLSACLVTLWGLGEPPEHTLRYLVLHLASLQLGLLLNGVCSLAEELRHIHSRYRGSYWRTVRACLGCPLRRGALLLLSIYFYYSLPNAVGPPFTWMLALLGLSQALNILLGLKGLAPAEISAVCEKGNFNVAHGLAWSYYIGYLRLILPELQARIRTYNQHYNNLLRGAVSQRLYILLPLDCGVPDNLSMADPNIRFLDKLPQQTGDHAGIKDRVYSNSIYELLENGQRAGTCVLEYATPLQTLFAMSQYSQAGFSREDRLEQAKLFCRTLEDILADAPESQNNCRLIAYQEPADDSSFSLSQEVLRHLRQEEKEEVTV

human STING (WT) = human STING (WT) (Homo sapiens, UniProt Q86WV6); experiment: ISRE reporter assay with STING co-transfection in HEK293T cells; type: cell-based
Sequence of human STING (WT) (Q86WV6 whole entry): as the sequence (Q86WV6 whole entry R95A) above, with A95R counted along it

human STING R95K = human STING R95K (Homo sapiens, UniProt Q86WV6, R95K); experiment: as above
Sequence of human STING R95K (Q86WV6 whole entry R95K): as the sequence (Q86WV6 whole entry R95A) above, with A95K counted along it

human STING L98A = human STING L98A (Homo sapiens, UniProt Q86WV6, L98A); experiment: as above
Sequence of human STING L98A (Q86WV6 whole entry L98A): as the sequence (Q86WV6 whole entry R95A) above, with A95R, L98A counted along it

B16-SIY tumors = experiment: B16-SIY flank tumor model in human STING knock-in mice; type: in vivo, mouse; conditions: individual animals
human STING R238A = human STING R238A (Homo sapiens, UniProt Q86WV6, R238A); experiment: ISRE reporter assay with STING co-transfection in HEK293T cells; conditions: for ISRE reporter activity, mean: STING R238A
Sequence of human STING R238A (Q86WV6 whole entry R238A): as the sequence (Q86WV6 whole entry R95A) above, with A95R, R238A counted along it

human STING I103S = human STING I103S (Homo sapiens, UniProt Q86WV6, I103S); experiment: as above
Sequence of human STING I103S (Q86WV6 whole entry I103S): as the sequence (Q86WV6 whole entry R95A) above, with A95R, I103S counted along it

Sequence of purified human STING R95A (Q86WV6 1-343 R95A): as the sequence (Q86WV6 1-343) above, with R95A counted along it

COc1cc(C(=O)O)ccc1NCc1ccc(C2(C(C)(C)C)OCC(C)(C)CO2)cc1 [NVS-STG2]
induction of STING oligomerization in words [1]: notable defect in higher-order oligomer formation | IP10 (BMDM, WT mSTING): 143 pg/mL | STING activation in words (human STING R95A): various degrees of reduction; also recorded: essentially irresponsive | IFN-γ Spots/2x105 PBMC ([2]; 400μg intratumorally): 141.667 Spots/2x105 PBMC and 96.3333 Spots/2x105 PBMC and 50 Spots/2x105 PBMC and 252 Spots/2x105 PBMC and 47 Spots/2x105 PBMC and 48 Spots/2x105 PBMC and 38.6667 Spots/2x105 PBMC and 77.3333 Spots/2x105 PBMC and 194.333 Spots/2x105 PBMC | IFN-γ Spots/2x105 PBMC ([2]; 800μg intratumorally): 144 Spots/2x105 PBMC and 181.5 Spots/2x105 PBMC and 154.667 Spots/2x105 PBMC and 138.333 Spots/2x105 PBMC and 210 Spots/2x105 PBMC and 286.333 Spots/2x105 PBMC and 79.5 Spots/2x105 PBMC and 96.3333 Spots/2x105 PBMC | T-cell priming response in words ([2]; B16-SIY, hSTING KI mice): dose dependent and significant induction of T-cell priming response | STING activation in words (human STING R95E): essentially irresponsive | IFNg (IFN-γ; 400μg intratumorally): 39.4953 pg/mL and 46.0042 pg/mL and 12.5471 pg/mL and 24.0798 pg/mL and 11.9723 pg/mL and 24.0458 pg/mL and 11.7115 pg/mL and 37.7 pg/mL and 31.9987 pg/mL | IFNg (IFN-γ; 800μg intratumorally): 69.5013 pg/mL and 56.155 pg/mL and 39.6205 pg/mL and 20.7743 pg/mL and 42.9846 pg/mL and 43.1066 pg/mL and 31.0552 pg/mL and 38.6876 pg/mL and 47.5545 pg/mL | plasma IFNγ level in words (IFN-γ; 6-hour post dosing): significant increase of plasma IFNγ level | ISRE reporter activity, mean (mouse STING; mSTING WT, Log[μM] 0.3, Figure S1g): -5.609 | ISRE reporter activity, mean (mouse STING; mSTING WT, Log[μM] 1, Figure S1g): -12.1937 | ISRE reporter activity, mean (mouse STING; mSTING WT, Log[μM] 1.7, Figure S1g): -31.614 | ISRE reporter activity, mean (mouse STING; mSTING WT, Log[μM] -0.4, Figure S1g): -7.536 | ISRE reporter activity, mean (mouse STING; mSTING WT, Log[μM] -1.1, Figure S1g): -5.586 | ISRE reporter activity, mean (mouse STING; mSTING WT, Log[μM] -1.8, Figure S1g): -3.154 | ISRE reporter activity, mean (mouse STING; mSTING, Log[μM] 0.2): 0.9 | ISRE reporter activity, mean (mouse STING; mSTING, Log[μM] 0.5): 1 | ISRE reporter activity, mean (mouse STING; mSTING, Log[μM] 0.8): 1.1 | ISRE reporter activity, mean (mouse STING; mSTING, Log[μM] 1.1): 0.8 | ISRE reporter activity, mean (mouse STING; mSTING, Log[μM] 1.4): 0.9 | ISRE reporter activity, mean (mouse STING; mSTING, Log[μM] -0.1): 0.9 | ISRE reporter activity, mean (mouse STING; mSTING, Log[μM] -0.4): 1.1 | ISRE reporter activity, mean (mouse STING; mSTING, Log[μM] -0.7): 1 | ISRE reporter activity, mean (mouse STING; mSTING, Log[μM] -1): 1 | STING activation in words (human STING L134A): various degrees of reduction | ISRE reporter activity, mean (human STING L134A; Log[μM] 0.3, Figure 3c): 5.454 | ISRE reporter activity, mean (human STING L134A; Log[μM] 1, Figure 3c): 26.4486 | ISRE reporter activity, mean (human STING L134A; Log[μM] -0.4, Figure 3c): 2.468 | ISRE reporter activity, mean (human STING L134A; Log[μM] -1.1, Figure 3c): -1.106 | ISRE reporter activity, mean (human STING L134A; Log[μM] -1.8, Figure 3c): 1.759 | ISRE reporter activity, mean (human STING L134A; Log[μM] -2.49, Figure 3c): 2.73 | ISRE reporter activity, mean (human STING L134A; Log[μM] -3.19, Figure 3c): 5.607 | IP10 (BMDM, mSTING Indel/Indel): 20 pg/mL | induction of STING oligomerization in words [3]: alone was able to induce high-order oligomers of STING | ISRE reporter activity, mean (human STING (WT); STING WT, Log[μM] 1.22185, Figure S1c and d): 17.6344 | ISRE reporter activity, mean (human STING (WT); STING WT, Log[μM] 1.69897, Figure S1c and d): 5.278 | ISRE reporter activity, mean (human STING (WT); WT, Log[μM] 0.3, Figure 3c): 91.1301 | ISRE reporter activity, mean (human STING (WT); WT, Log[μM] 1, Figure 3c): 89.4692 | ISRE reporter activity, mean (human STING (WT); WT, Log[μM] -0.4, Figure 3c): 17.8606 | ISRE reporter activity, mean (human STING (WT); WT, Log[μM] -1.1, Figure 3c): 10.1153 | ISRE reporter activity, mean (human STING (WT); WT, Log[μM] -1.8, Figure 3c): -0.2753 | ISRE reporter activity, mean (human STING (WT); WT, Log[μM] -2.49, Figure 3c): -1.7095 | ISRE reporter activity, mean (human STING (WT); WT, Log[μM] -3.19, Figure 3c): -1.3729 | ISRE reporter activity, mean (human STING (WT); hSTING WT, Log[μM] 0.2): 21.1 and 30.1 | ISRE reporter activity, mean (human STING (WT); hSTING WT, Log[μM] 0.5): 33.4 and 42.4 | ISRE reporter activity, mean (human STING (WT); hSTING WT, Log[μM] 0.8): 39.5 and 52.4 | ISRE reporter activity, mean (human STING (WT); hSTING WT, Log[μM] 1.1): 50.3 and 59.2 | ISRE reporter activity, mean (human STING (WT); hSTING WT, Log[μM] 1.4): 53.6 and 53.1 | ISRE reporter activity, mean (human STING (WT); hSTING WT, Log[μM] -1.3): 1.2 and 1.5 | STING activation in words (human STING (WT); human STING): specifically activated human STING | STING activation in words (human STING R95K): partially active | STING activation in words (human STING L98A): various degrees of reduction | Tumor Volume (B16-SIY tumors; 400μg intratumorally on day 8, day 8 post implant): 66 mm3 and 90 mm3 and 97 mm3 and 105 mm3 and 146 mm3 and 151 mm3 and 169 mm3 and 182 mm3 and 216 mm3 | Tumor Volume (B16-SIY tumors; 400μg intratumorally on day 8, day 10 post implant): 54 mm3 and 77 mm3 and 203 mm3 and 84 mm3 and 50 mm3 and 285 mm3 and 89 mm3 and 124 mm3 and 240 mm3 | Tumor Volume (B16-SIY tumors; 400μg intratumorally on day 8, day 13 post implant): 38 mm3 and 77 mm3 and 85 mm3 and 44 mm3 and 173 mm3 and 290 mm3 and 65 mm3 and 86 mm3 and 178 mm3 | Tumor Volume (B16-SIY tumors; 800μg intratumorally on day 8, day 8 post implant): 71 mm3 and 84 mm3 and 98 mm3 and 102 mm3 and 148 mm3 and 150 mm3 and 177 mm3 and 223 mm3 | Tumor Volume (B16-SIY tumors; 800μg intratumorally on day 8, day 10 post implant): 62 mm3 and 28 mm3 and 136 mm3 and 99 mm3 and 76 mm3 and 125 mm3 and 109 mm3 and 177 mm3 | Tumor Volume (B16-SIY tumors; 800μg intratumorally on day 8, day 13 post implant): 37 mm3 and 60 mm3 and 126 mm3 and 77 mm3 and 50 mm3 and 150 mm3 and 71 mm3 and 185 mm3 | STING activation in words (human STING R238A; R238A): maintained full agonist activity | ISRE reporter activity, mean (human STING R238A; Log[μM] 0.267606): 22.8148 | ISRE reporter activity, mean (human STING R238A; Log[μM] 0.744728): 30.7761 | ISRE reporter activity, mean (human STING R238A; Log[μM] 1.22185): 19.5642 | ISRE reporter activity, mean (human STING R238A; Log[μM] 1.69897): 5.793 | ISRE reporter activity, mean (human STING R238A; Log[μM] -0.209515): 16.4448 | ISRE reporter activity, mean (human STING R238A; Log[μM] -0.686637): 8.4 | ISRE reporter activity, mean (human STING R238A; Log[μM] -1.16376): 4.954 | ISRE reporter activity, mean (human STING R238A; Log[μM] -4.30103): 2.802 | ISRE reporter activity, mean (human STING I103S; Log[μM] 0.2): 30.5 | ISRE reporter activity, mean (human STING I103S; Log[μM] 0.5): 41.9 | ISRE reporter activity, mean (human STING I103S; Log[μM] 0.8): 48.4 | ISRE reporter activity, mean (human STING I103S; Log[μM] 1.1): 57 | ISRE reporter activity, mean (human STING I103S; Log[μM] 1.4): 55.6 | ISRE reporter activity, mean (human STING I103S; Log[μM] -0.1): 23.3 | ISRE reporter activity, mean (human STING I103S; Log[μM] -0.4): 12.5 | ISRE reporter activity, mean (human STING I103S; Log[μM] -0.7): 7.7 | ISRE reporter activity, mean (human STING I103S; Log[μM] -1): 3.3 | ISRE reporter activity, mean (human STING I103S; Log[μM] -1.3): 1.4
